# pEC50: −log10 of the molar value. Counter-ions that a name gives are not always drawn.
# Assays:
# Assay type in all cases: cell-based
# [1] = tested on: human breast cancer cell line T-47D; experiment: Caspase cascade activation (EC50), T-47D; settings: Homo sapiens; T47D cells; caspase cascade activation; read-out: caspase potency (EC50) T47D
# Method in brief: (§1)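 48 h compound exposure (0.016–10 μM final) at 37 °C, 5% CO2; then DEVD-R110 substrate in lysolecithin/DTT/PIPES pH 7.2 buffer, 3 h RT. Fluorescence ex485/em530; net RFU = T=3 h minus control T=0; ratio to control; sigmoidal fit → EC50 (nM).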
# [2] = tested on: human cancer cell line H1299; experiment: Caspase cascade activation (EC50), H1299; settings: NCI-H1299, H1299 cells, read-out: caspase potency (EC50) H1299
# Procedure: (§2) Human breast cancer cell lines T-47D, human hepatocellular carcinoma cell line SNU398, human colon carcinoma cell line HCT116, human cancer cell line H1299, human Burkitt's lymphoma cell line Namalwa, human lymphoma cell line Raji, and human B cell lymphoblastoid cell line Ramos were grown according to media component mixtures designated by American Type Culture Collection+10% FCS (Invitrogen Corporation), in a 5% CO2-95% humidity incubator at 37° C. T-47D and H1299 cells were maintained at a cell density between 50 and 80% confluency at a cell density of 0.1 to 0.6×10^6 cells/mL. Cells were harvested at 600×g and resuspended at 0.65×10^6 cells/mL into appropriate media+10% FCS. An aliquot of 22.5 μL of cells was added to a well of a 384-well microtiter plate containing 2.5 μL of a 10% DMSO in RPMI-1640 media solution containing 0.16 to 100 μM of 3-(2-chlorophenyl)-6-(3,4-methylenedioxyphenyl)-7H-[1,2,4]triazolo[3,4-b][1,3,4]thiadiazine or other test compound (0.016 to 10 μM final). An aliquot of 22.5 μL of cells was added to a well of a 384-well microtiter plate containing 2.5 μL of a 10% DMSO in RPMI-1640 media solution without test compound as the control sample. The samples were mixed by agitation and then incubated at 37° C. for 48 h in a 5% CO2-95% humidity incubator. After incubation, the samples were removed from the incubator and 25 μL of a solution containing 14 μM of N—(Ac-DEVD)-N′-ethoxycarbonyl-R110 (SEQ ID No.:1) fluorogenic substrate (Cytovia, Inc.; WO99/18856), 20% sucrose (Sigma), 20 mM DTT (Sigma), 200 mM NaCl (Sigma), 40 mM Na PIPES buffer pH 7.2 (Sigma), and 500 μg/mL lysolecithin (Calbiochem) was added. The samples were mixed by agitation and incubated at room temperature. Using a fluorescent plate reader (Model SPECTRAfluor Plus, Tecan), an initial reading (T=0) was made approximately 1-2 min after addition of the substrate solution, employing excitation at 485 nm and emission at 530 nm, to determine the background fluorescence of the control sample. After the 3 h incubation, the samples were read for fluorescence as above (T=3 h). Calculation: The Relative Fluorescence Unit values (RFU) were used to calculate the sample readings as follows: RFU(T=3H)−Control RFU(T=0)=Net RFU(T=3h) The activity of caspase cascade activation was determined by the ratio of the net RFU value for 3-(2-chlorophenyl)-6-(3,4-methylenedioxyphenyl)-7H-[1,2,4]triazolo[3,4-b][1,3,4]thiadiazine (Example P) or other test compound to that of control samples. The EC50 (nM) was determined by a sigmoidal dose-response calculation (Prism 3.0, GraphPad Software Inc.).
# [3] = tested on: human hepatocellular carcinoma cell line SNU398; experiment: Caspase cascade activation (EC50), SNU398; settings: Homo sapiens, SNU-398; SNU398 cells; caspase cascade activation; read-out: caspase potency (EC50) SNU398
# Method in brief: as §1
# [4] = tested on: human colon carcinoma cell line HCT116; experiment: Caspase cascade activation (EC50), HCT116; settings: Homo sapiens, HCT-116; HCT116 cells; caspase cascade activation; read-out: caspase potency (EC50) HCT116
# Method in brief: as §1
# [5] = tested on: human Burkitt's lymphoma cell line Namalwa; experiment: Caspase cascade activation (EC50), Namalwa; settings: Homo sapiens, Burkitts lymphoma cell; Namalwa cells; caspase cascade activation; read-out: caspase potency (EC50) Namalwa
# Method in brief: as §1
# [6] = tested on: human lymphoma cell line Raji; experiment: Caspase cascade activation (EC50), Raji; settings: Homo sapiens, RAJI cells, read-out: caspase potency (EC50) RAJI
# Procedure: as §2
# [7] = tested on: human B cell lymphoblastoid cell line Ramos; experiment: Caspase cascade activation (EC50), Ramos; settings: Homo sapiens, RAMOS cells, read-out: caspase potency (EC50) RAMOS
# Procedure: as §2
pEC50 [1],pEC50 [2],pEC50 [3],pEC50 [4],pEC50 [5],pEC50 [6],pEC50 [7],SMILES
5.62,5.56,,,,,,"COc1ccc(C2=Nn3c(nnc3-c3ccc(C)cc3)SC2)cc1OC [A, 3-(4-Methylphenyl)-6-(3,4-dimethoxyphenyl)-7H-[1,2,4]triazolo[3,4-b][1,3,4]thiadiazine]"
5.73,5.68,,,,,,"COc1ccc(C2=Nn3c(nnc3-c3ccc(Cl)cc3)SC2)cc1OC [E, 3-(4-Chlorophenyl)-6-(3,4-dimethoxyphenyl)-7H-[1,2,4]triazolo[3,4-b][1,3,4]thiadiazine]"
6.07,,5.27,< 5.00,< 5.00,< 5.00,5.12,"Oc1ccc(C2=Nn3c(nnc3-c3ccc(Cl)cc3)SC2)cc1 [Example 6, 3-(4-Chlorophenyl)-6-(4-hydroxyphenyl)-7H-[1,2,4]triazolo[3,4-b][1,3,4]thiadiazine hydrobromide]"
6.27,,6.91,6.73,6.67,6.57,6.59,"CCN(CC)c1ccc(C2=Nn3c(nnc3-c3ccc(OC)c(OC)c3)SC2)cc1 [Example 22, 6-(4-Diethylaminophenyl)-3-(3,4-dimethoxyphenyl)-7H-[1,2,4]triazolo[3,4-b][1,3,4]thiadiazine]"
< 5.00,,< 5.00,< 5.00,< 5.00,< 5.00,< 5.00,"COc1ccc(-c2nnc3n2N=C(c2ccc([N+](=O)[O-])cc2)CS3)cc1OC [Example 28, 3-(3,4-Dimethoxyphenyl)-6-(4-nitrophenyl)-7H-[1,2,4]triazolo[3,4-b][1,3,4]thiadiazine]"
5.59,5.58,,,,,,"CCOc1ccc(-c2nnc3n2N=C(c2ccc(O)c(O)c2)CS3)cc1 [Example F1, 3-(4-Ethoxyphenyl)-6-(3,4-dihydroxyphenyl)-7H-[1,2,4]triazolo[3,4-b][1,3,4]thiadiazine]"
5.54,5.59,,,,,,"Clc1ccc(-c2nnc3n2N=C(c2ccccc2)CS3)c(Cl)c1 [Example J1, 3-(2,4-Dichlorophenyl)-6-phenyl-7H-[1,2,4]triazolo[3,4-b][1,3,4]thiadiazine]"
5.25,,5.29,< 5.00,< 5.00,5.26,5.27,"CCc1nnc2n1N=C(c1ccc(OC)cc1)CS2 [Example J2, 3-Ethyl-6-(4-methoxyphenyl)-7H-[1,2,4]triazolo[3,4-b][1,3,4]thiadiazine]"
5.26,,5.25,< 5.00,5.26,5.26,5.23,"COc1ccc(C2=Nn3c(nnc3-c3cccc(OC(C)C)c3)SC2)cc1 [Example K2, 3-(3-Isopropyloxyphenyl)-6-(4-methoxyphenyl)-7H-[1,2,4]triazolo[3,4-b][1,3,4]thiadiazine]"
5.36,,5.32,< 5.00,5.28,5.29,5.29,"c1cc2c(cc1C1=Nn3c(nnc3C3CCCCC3)SC1)OCO2 [Example M2, 3-Cyclohexyl-6-(3,4-methylenedioxyphenyl)-7H-[1,2,4]triazolo[3,4-b][1,3,4]thiadiazine]"
5.85,,6.36,6.18,6.20,6.19,6.22,"CCOc1ccc(C2=Nn3c(nnc3-c3cccc(C)c3)SC2)cc1 [Example O2, 3-(3-Methylphenyl)-6-(4-ethoxyphenyl)-7H-[1,2,4]triazolo[3,4-b][1,3,4]thiadiazine]"
5.67,,6.33,5.83,6.06,6.05,6.18,"CCOc1ccc(C2=Nn3c(nnc3-c3ccc(F)cc3)SC2)cc1 [Example P2, 3-(4-Fluorophenyl)-6-(4-ethoxyphenyl)-7H-[1,2,4]triazolo[3,4-b][1,3,4]thiadiazine]"
6.56,,6.59,6.26,6.60,6.32,6.58,"Fc1ccccc1-c1nnc2n1N=C(c1ccc3c(c1)OCO3)CS2 [Example Q1, 3-(2-Fluorophenyl)-6-(3,4-methylenedioxyphenyl)-7H-[1,2,4]triazolo[3,4-b][1,3,4]thiadiazine]"
5.78,,6.57,6.15,6.26,6.24,6.47,COc1ccc(C2=Nn3c(nnc3-c3ccc(F)cc3)SC2)cc1 [Example S2]
6.84,,7.38,7.19,7.40,7.19,7.41,"COc1cc(-c2nnc3n2N=C(c2ccc(Br)cc2)CS3)cc(OC)c1OC [Example U1, 3-(3,4,5-Trimethoxyphenyl)-6-(4-bromophenyl)-7H-[1,2,4]triazolo[3,4-b][1,3,4]thiadiazine]"
5.88,,5.98,< 5.00,6.49,6.21,6.33,"COc1cc(-c2nnc3n2N=C(c2ccc(F)cc2)CS3)cc(OC)c1OC [Example V1, 3-(3,4,5-Trimethoxyphenyl)-6-(4-fluorophenyl)-7H-[1,2,4]triazolo[3,4-b][1,3,4]thiadiazine]"
6.56,,6.95,6.89,6.82,7.14,7.11,"COc1cc(-c2nnc3n2N=C(c2ccc(Cl)cc2)CS3)cc(OC)c1OC [Example W1, 3-(3,4,5-Trimethoxyphenyl)-6-(4-chlorophenyl)-7H-[1,2,4]triazolo[3,4-b][1,3,4]thiadiazine]"
5.58,,5.58,5.60,5.60,5.47,5.60,"COc1cc(-c2nnc3n2N=C(c2cccc(Br)c2)CS3)cc(OC)c1OC [Example X1, 3-(3,4,5-Trimethoxyphenyl)-6-(3-bromophenyl)-7H-[1,2,4]triazolo[3,4-b][1,3,4]thiadiazine]"
6.25,,7.09,6.92,6.86,6.90,7.00,"COc1cc(-c2nnc3n2N=C(c2ccc4ccccc4c2)CS3)cc(OC)c1OC [Example Y1, 3-(3,4,5-Trimethoxyphenyl)-6-(2-naphthyl)-7H-[1,2,4]triazolo[3,4-b][1,3,4]thiadiazine]"
6.55,,7.00,6.62,6.70,6.75,6.66,"COc1cc(-c2nnc3n2N=C(c2ccc(O)c(O)c2)CS3)cc(OC)c1OC [Example Z1, 3-(3,4,5-Trimethoxyphenyl)-6-(3,4-dihydroxyphenyl)-7H-[1,2,4]triazolo[3,4-b][1,3,4]thiadiazine]"
5.27,5.29,,,,,,"Clc1ccccc1-c1nnc2n1N=C(c1ccc(Br)cc1)CS2 [Q, 3-(2-Chlorophenyl)-6-(4-bromophenyl)-7H-[1,2,4]triazolo[3,4-b][1,3,4]thiadiazine]"
